What was measured:
[1] = tested on: OVCAR-8; assay: NCI60 five-dose screen; format: cell-based; details: Homo sapiens, OVCAR-8, ovarian cancer
[2] = tested on: HCC-2998; assay: NCI60 five-dose screen; format: cell-based; details: Homo sapiens, HCC-2998, colon cancer
[3] = tested on: UO-31; assay: NCI60 five-dose screen; format: cell-based; details: Homo sapiens, UO-31, renal cancer
[4] = tested on: UACC-257; assay: NCI60 five-dose screen; format: cell-based; details: Homo sapiens, UACC-257, melanoma
[5] = tested on: MDA-MB-231/ATCC; assay: NCI60 five-dose screen; format: cell-based; details: Homo sapiens, breast cancer
[6] = tested on: LOX IMVI; assay: NCI60 five-dose screen; format: cell-based; details: Homo sapiens, melanoma
[7] = tested on: PC-3; assay: NCI60 five-dose screen; format: cell-based; details: Homo sapiens, PC-3, prostate cancer
[8] = tested on: MDA-MB-468; assay: NCI60 five-dose screen; format: cell-based; details: Homo sapiens, MDA-MB-468, breast cancer
[9] = tested on: MDA-MB-435; assay: NCI60 five-dose screen; format: cell-based, human; details: Homo sapiens
[10] = tested on: SF-295; assay: NCI60 five-dose screen; format: cell-based; details: Homo sapiens, SF-295, CNS cancer
[11] = tested on: HOP-62; assay: NCI60 five-dose screen; format: cell-based; details: Homo sapiens, HOP-62, NSC lung cancer
[12] = tested on: BT-549; assay: NCI60 five-dose screen; format: cell-based; details: Homo sapiens, BT-549, breast cancer
[13] = tested on: HCT-116; assay: NCI60 five-dose screen; format: cell-based; details: Homo sapiens, HCT-116, colon cancer
[14] = tested on: HL-60 (TB); assay: NCI60 five-dose screen; format: cell-based; details: Homo sapiens, leukemia
[15] = tested on: CAKI-1; assay: NCI60 five-dose screen; format: cell-based; details: Homo sapiens, CAKI-1, renal cancer
[16] = tested on: RPMI-8226; assay: NCI60 five-dose screen; format: cell-based; details: Homo sapiens, RPMI-8226, leukemia
[17] = tested on: HT29; assay: NCI60 five-dose screen; format: cell-based; details: Homo sapiens, HT-29, HT29, colon cancer
[18] = tested on: NCI-H460; assay: NCI60 five-dose screen; format: cell-based; details: Homo sapiens, NCI-H460, NSC lung cancer
[19] = tested on: NCI-H23; assay: NCI60 five-dose screen; format: cell-based; details: Homo sapiens, NCI-H23, NSC lung cancer
[20] = tested on: IGROV1; assay: NCI60 five-dose screen; format: cell-based; details: Homo sapiens, IGROV-1; IGROV1, ovarian cancer
[21] = tested on: NCI-H226; assay: NCI60 five-dose screen; format: cell-based; details: Homo sapiens, NCI-H226, NSC lung cancer
[22] = tested on: HOP-92; assay: NCI60 five-dose screen; format: cell-based; details: Homo sapiens, HOP-92, NSC lung cancer
[23] = tested on: OVCAR-3; assay: NCI60 five-dose screen; format: cell-based; details: Homo sapiens, OVCAR-3, ovarian cancer
[24] = tested on: T47D breast cancer cell line; assay: Cytotoxicity MTT assay, T47D; format: cell-based, human; details: Homo sapiens, T47D; MTT, 48 hours
How it was run: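 Read-out is absorbance at 570 nm of DMSO-solubilised formazan after a 3-hour incubation with 0.5 mg mL^−1 MTT. Percent viability is relative to vehicle (DMSO).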

[25] = tested on: MOLT-4; assay: NCI60 five-dose screen; format: cell-based; details: Homo sapiens, MOLT-4, leukemia
[26] = tested on: OVCAR-5; assay: NCI60 five-dose screen; format: cell-based; details: Homo sapiens, OVCAR-5, ovarian cancer
[27] = tested on: SK-MEL-2; assay: NCI60 five-dose screen; format: cell-based; details: Homo sapiens, SK-MEL-2, melanoma
[28] = tested on: HCT-15; assay: NCI60 five-dose screen; format: cell-based; details: Homo sapiens, HCT-15, colon cancer
[29] = tested on: M14; assay: NCI60 five-dose screen; format: cell-based; details: Homo sapiens, M14, melanoma
[30] = tested on: HS 578T; assay: NCI60 five-dose screen; format: cell-based; details: Homo sapiens, breast cancer
[31] = tested on: DU-145; assay: NCI60 five-dose screen; format: cell-based; details: Homo sapiens, DU-145, prostate cancer
[32] = read-out: LC50 (the source's name)

## O=C(N/N=C/c1[nH]ccc1Cl)c1[nH]c2ccc(Br)cc2c1-c1ccccc1 [Derivative 3g, (E)-5-Bromo-N′-((3-chloro-1H-pyrrol-2-yl)methylene)-3-phenyl-1H-indole-2-carbohydrazide]
[1]
  GI50: 481 nM
[1]; [32]
  CC50: 27.7 µM
[2]
  GI50: 1230 nM
[2]; [32]
  CC50: 28.6 µM
[3]
  GI50: 577 nM
[3]; [32]
  CC50: 35.7 µM
[4]
  GI50: 738 nM
[4]; [32]
  CC50: 52 µM
[5]
  GI50: 2070 nM
[5]; [32]
  CC50: 28.2 µM
[6]
  GI50: 555 nM
[6]; [32]
  CC50: 29.4 µM
[7]
  GI50: 826 nM
[7]; [32]
  CC50: 63.6 µM
[8]
  GI50: 297 nM
[8]; [32]
  CC50: 24.7 µM
[9]; MDA-MB-435, MDA-MB-435, melanoma, read-out: LC50 (the source's name)
  CC50: 25.5 µM
[9]; MDA-MB-435, melanoma
  GI50: 222 nM
[10]
  GI50: 501 nM
[10]; [32]
  CC50: 26 µM
[11]
  GI50: 3.8 µM
[11]; [32]
  CC50: 60.8 µM
[12]
  GI50: 3.56 µM
[12]; [32]
  CC50: 46.8 µM
[13]
  GI50: 467 nM
[13]; [32]
  CC50: 79.9 µM
[14]
  GI50: 891 nM
[14]; [32]
  CC50: > 100 µM
[15]
  GI50: 445 nM
[15]; [32]
  CC50: 36.9 µM
[16]
  GI50: 855 nM
[16]; [32]
  CC50: > 100 µM
[17]
  GI50: 401 nM
[17]; [32]
  CC50: 58.5 µM
[18]
  GI50: 448 nM
[18]; [32]
  CC50: 34.3 µM
[19]
  GI50: 884 nM
[19]; [32]
  CC50: 34.4 µM
[20]
  GI50: 734 nM
[21]
  GI50: 1440 nM
[21]; [32]
  CC50: 32.1 µM
[22]
  GI50: 2790 nM
[22]; [32]
  CC50: 50.1 µM
[23]
  GI50: 409 nM
[23]; [32]
  CC50: 34.9 µM
[24]
  IC50: 8.2 ± 1.8 µM
[25]
  GI50: 1710 nM
[25]; [32]
  CC50: > 100 µM
[26]
  GI50: 1100 nM
[26]; [32]
  CC50: 35.7 µM
[27]
  GI50: 1070 nM
[27]; [32]
  CC50: 38.7 µM
[28]
  GI50: 465 nM
[28]; [32]
  CC50: 34.3 µM
[29]
  GI50: 689 nM
[29]; [32]
  CC50: 45.4 µM
[30]
  GI50: 590 nM
[30]; [32]
  CC50: > 100 µM
[31]
  GI50: 1580 nM
[31]; [32]
  CC50: 33.1 µM

Source: article PMC12203311, “Design, synthesis, in silico and in vitro evaluation of pyrrole–indole hybrids as dual tubulin and aromatase inhibitors with potent anticancer activities” (RSC Advances, 2025)
